Test results: patent publication US9296734B2 (AMGEN INC., priority 2013, dated 2016)
Like-named read-outs stand apart in the source and are kept apart here.

How the values were obtained:
[1] = target: Cathepsin D (Cat D) (Homo sapiens (Human), UniProt P07339); assay: In vitro enzymatic Cathepsin D (Cat D) FRET assay; type: biochemical; details: read-out: CatD IC50
Method in brief: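 CHO-expressed recombinant Cat D cleaves a fluorophore/quencher FRET peptide (20 nM) in 0.05 M citrate pH 3.5, 5 mM CHAPS, 10% DMSO final, over 1 h. Tris addition neutralizes pH to stop the reaction; fluorescence read at excitation 500 nm, emission 580 nm.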

[2] = tested on: Abeta 40 in CSF and brain; assay: In vivo inhibition of beta-secretase: Abeta 40 reduction in CSF and brain of the rat; details: 10 mpk (unless otherwise noted), after 4 hrs
Excerpt: In Vivo Inhibition of Beta-Secretase
Several animal models, including mouse, rat, dog, and monkey, may be used to screen for inhibition of beta-secretase activity in vivo following administration of a test compound sample. Animals used in this invention can be wild type, transgenic, or gene knockout animals. […] A separate group of animals receive 2% hydroxypropyl methylcellulose, 1% Tween80 alone, containing no test compound, and serve as a vehicle-control group. At the end of the test period, animals are sacrificed and brain tissues, plasma or cerebrospinal fluid are collected. […] Homogenates are centrifuged at 355,000 g, 4° C. for 30 minutes. CSF or brain supernatants are then analyzed for the presence of A-beta peptide by specific sandwich ELISA assays based on ECL (Electrochemiluminescence) technology. For example, rat Abeta40 is measured using biotinylated-4G8 (Signet) as a capture antibody and Fab40 (an in-house antibody specific to the C-terminal of Abeta40) as a detection antibody.
Actual vehicles used: Oral: 2% HPMC, 1% Tween80, pH 2.2

[3] = target: Beta Secretase enzyme (BACE) (Homo sapiens (Human), UniProt P56817); assay: In vitro enzymatic BACE FRET assay; type: biochemical; details: read-out: BACE 1 FRET assay IC50
Beta Secretase enzyme (BACE), sequence (P56817 46-501): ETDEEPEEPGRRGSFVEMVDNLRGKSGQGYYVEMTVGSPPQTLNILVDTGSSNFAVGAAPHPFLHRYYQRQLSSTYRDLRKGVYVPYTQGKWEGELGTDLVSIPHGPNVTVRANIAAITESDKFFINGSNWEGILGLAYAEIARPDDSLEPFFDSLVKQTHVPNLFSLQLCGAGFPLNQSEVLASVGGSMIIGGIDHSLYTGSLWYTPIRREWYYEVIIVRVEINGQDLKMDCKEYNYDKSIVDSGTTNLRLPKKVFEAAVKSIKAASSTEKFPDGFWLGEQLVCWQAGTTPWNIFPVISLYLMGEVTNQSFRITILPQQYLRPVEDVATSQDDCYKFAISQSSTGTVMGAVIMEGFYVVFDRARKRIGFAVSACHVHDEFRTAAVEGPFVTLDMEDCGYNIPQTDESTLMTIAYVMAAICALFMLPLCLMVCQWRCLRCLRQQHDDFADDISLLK
Method in brief: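 Reactions ran in 0.05 M acetate pH 4.2 with 10% DMSO final and 100 uM genapol. They were started with 50 nM peptide FRET substrate (fluorophore and quencher flanking the BACE cleavage site) and incubated one hour. Tris addition raised the pH to neutral to stop the reaction before fluorescence reading.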

[4] = tested on: Aβ40 in conditioned medium of cells stably expressing Amyloid Precursor Protein (APP); assay: In vitro BACE cell-based assay (Aβ40 sandwich ELISA); details: Homo sapiens
Method in brief: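 Secreted Aβ40 was quantified by sandwich ELISA (pAb40 capture, biotinylated 6E10 detection, Europium time-resolved fluorescence). IC50 derived from percent inhibition versus concentration.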

[5] = Abeta 40, rat CSF, read-out: % reduction of rat CSF levels at 10 pmk
[6] = Abeta 40, rat brain, read-out: % reduction of rat brain levels at 10 mpk
[7] = HEK293, average IC50, HEK cells, read-out: HEK cell assay IC50
[8] = average IC50, cathepsin D enzyme assay
[9] = HEK293, HEK cells, average, read-out: HEK cell assay IC50
[10] = HEK293, read-out: HEK cell assay IC50

Cathepsin D (Cat D), sequence (P07339 65-412, species assumed): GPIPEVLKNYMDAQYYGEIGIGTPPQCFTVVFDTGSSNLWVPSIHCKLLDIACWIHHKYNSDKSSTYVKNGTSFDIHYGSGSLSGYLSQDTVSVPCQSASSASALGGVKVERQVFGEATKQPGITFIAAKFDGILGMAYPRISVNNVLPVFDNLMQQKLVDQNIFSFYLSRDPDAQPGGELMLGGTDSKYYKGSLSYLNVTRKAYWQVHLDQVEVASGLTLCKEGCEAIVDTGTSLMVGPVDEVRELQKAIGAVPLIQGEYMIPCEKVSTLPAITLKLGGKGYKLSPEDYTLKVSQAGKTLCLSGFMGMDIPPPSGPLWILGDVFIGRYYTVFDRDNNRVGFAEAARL

| SMILES | IC50 ([1]; average IC50) | inhibition in vivo at 10 mg/kg [2, 5] | inhibition in vivo at 10 mg/kg [2, 6] | IC50 ([1]; average) | IC50 ([3]; average) | IC50 [4, 9] | also measured |
| --- | --- | --- | --- | --- | --- | --- | --- |
| COc1cnc(C(=O)Nc2ccc(F)c([C@]3(CF)C[C@@H](C(F)(F)F)OC(N)=N3)c2)cn1 [Example 2, N-(3-((4S,6S)-2-amino-4-(fluoromethyl)-6-(trifluoromethyl)-5,6-dihydro-4H-1,3-oxazin-4-yl)-4-fluorophenyl)-5-methoxypyrazine-2-carboxamide] | > 400 µM | 70% | 61% | – | – | – | – |
| NC1=N[C@](CF)(c2cc(NC(=O)c3ccc(Cl)cn3)ccc2F)C[C@@H](C(F)(F)F)O1 [Example 3, N-(3-((4S,6S)-2-amino-4-(fluoromethyl)-6-(trifluoromethyl)-5,6-dihydro-4H-1,3-oxazin-4-yl)-4-fluorophenyl)-5-chloropicolinamide] | > 400 µM | 72% | 58% | – | – | – | IC50 ([3]; average IC50): 0.018 µM; IC50 [4, 7]: 0.032 µM |
| NC1=N[C@](CF)(c2cc(Nc3cc(Cl)ccn3)ccc2F)C[C@@H](C(F)(F)F)O1 [Example 16, (4S,6S)-4-(5-((4-chloropyridin-2-yl)amino)-2-fluorophenyl)-4-(fluoromethyl)-6-(trifluoromethyl)-5,6-dihydro-4H-1,3-oxazin-2-amine] | – | 83% | 87% | – | – | – | IC50 [1, 8]: 1630 µM |
| N#Cc1cnc(C(=O)Nc2ccc(F)c([C@]3(CF)C[C@@H](C(F)(F)F)OC(N)=N3)c2)c(Cl)c1 [Example 32, N-(3-((4S,6S)-2-amino-4-(fluoromethyl)-6-(trifluoromethyl)-5,6-dihydro-4H-1,3-oxazin-4-yl)-4-fluorophenyl)-3-chloro-5-cyano-2-pyridinecarboxamide] | > 400 µM | 21% | -3% | – | – | – | IC50 ([3]; average IC50): 0.0285 µM; IC50 [4, 7]: 0.0544 µM |
| COc1cnc(C(=O)Nc2ccc(F)c([C@]3(CF)C[C@@H](C(F)(F)F)OC(N)=N3)c2)c(Cl)c1 [Example 50, N-(3-((4S,6S)-2-amino-4-(fluoromethyl)-6-(trifluoromethyl)-5,6-dihydro-4H-1,3-oxazin-4-yl)-4-fluorophenyl)-3-chloro-5-methoxypicolinamide] | > 400 µM | 50% | 22% | – | – | – | IC50 ([3]; average IC50): 0.0238 µM; IC50 [4, 7]: 0.0265 µM |
| Cc1cc(C#N)cnc1C(=O)Nc1ccc(F)c([C@]2(CF)C[C@@H](C(F)(F)F)OC(N)=N2)c1 [Example 51, N-(3-((4S,6S)-2-amino-4-(fluoromethyl)-6-(trifluoromethyl)-5,6-dihydro-4H-1,3-oxazin-4-yl)-4-fluorophenyl)-5-cyano-3-methylpicolinamide] | – | 68% | 59% | – | – | – | – |
| NC1=N[C@](CF)(c2cc(NC(=O)c3ccc(Br)cn3)ccc2F)C[C@@H](C(F)(F)F)O1 [Example 52, N-(3-((4S,6S)-2-amino-4-(fluoromethyl)-6-(trifluoromethyl)-5,6-dihydro-4H-1,3-oxazin-4-yl)-4-fluorophenyl)-5-bromopicolinamide] | > 400 µM | 61% | 54% | – | – | – | – |
| C[C@@]1(c2cc(NC(=O)c3ccc(Cl)cn3)cnc2F)C[C@@H](C(F)(F)F)OC(N)=N1 [Example 60, N-(5-((4S,6S)-2-amino-4-methyl-6-(trifluoromethyl)-5,6-dihydro-4H-1,3-oxazin-4-yl)-6-fluoropyridin-3-yl)-5-chloropicolinamide] | > 400 µM | 79% | 72% | – | – | – | IC50 ([3]; average IC50): 0.0528 µM; IC50 [4, 7]: 0.0135 µM |
| C[C@@]1(c2nc(NC(=O)c3ccc(C#N)cn3)ccc2F)C[C@@H](C(F)(F)F)OC(N)=N1 [Example 79, N-(6-((4S,6S)-2-amino-4-methyl-6-(trifluoromethyl)-5,6-dihydro-4H-1,3-oxazin-4-yl)-5-fluoropyridin-2-yl)-5-cyanopicolinamide] | > 400 µM | 83% | 79% | – | – | – | IC50 ([3]; average IC50): 0.0304 µM; IC50 [4, 7]: 0.0115 µM |
| C[C@@]1(c2cc(NC(=O)c3ncc(C#N)cc3Cl)cc(F)c2F)C[C@@H](C(F)(F)F)OC(N)=N1 [Example 167, N-(3-((4S,6S)-2-amino-4-methyl-6-(trifluoromethyl)-5,6-dihydro-4H-1,3-oxazin-4-yl)-4,5-difluorophenyl)-3-chloro-5-cyanopicolinamide] | – | 42% | 15% | – | – | – | IC50 [1, 8]: 113 µM |
| COc1ccc(C(=O)Nc2cc(F)c(F)c([C@]3(C)C[C@@H](C(F)(F)F)OC(N)=N3)c2)nc1 [Example 201, N-(3-((4S,6S)-2-amino-4-methyl-6-(trifluoromethyl)-5,6-dihydro-4H-1,3-oxazin-4-yl)-4,5-difluorophenyl)-5-methoxypicolinamide] | – | 75% | 76% | 762 µM | – | – | – |
| Cc1cc(Nc2ncnc3cc(Cl)cnc23)cc([C@]2(CF)C[C@@H](C(F)(F)F)OC(N)=N2)c1F [Example 230, (4S,6S)-4-(5-((7-chloropyrido[3,2-d]pyrimidin-4-yl)amino)-2-fluoro-3-methylphenyl)-4-(fluoromethyl)-6-(trifluoromethyl)-5,6-dihydro-4H-1,3-oxazin-2-amine] | – | – | – | > 400 µM | 0.049 µM | 0.057 µM | – |
| COc1cccnc1Nc1cc(F)c(F)c([C@]2(C)C[C@@H](C(F)(F)F)OC(N)=N2)c1 [Example 231, (4S,6S)-4-(2,3-difluoro-5-((3-methoxypyridin-2-yl)amino)phenyl)-4-methyl-6-(trifluoromethyl)-5,6-dihydro-4H-1,3-oxazin-2-amine] | – | – | – | 282 µM | 0.177 µM | 0.162 µM | – |
| Cc1cc(C#N)cnc1C(=O)Nc1cc(F)c(F)c([C@]2(CF)C[C@@H](C(F)(F)F)OC(N)=N2)c1 [Example 232, N-(3-((4S,6S)-2-amino-4-(fluoromethyl)-6-(trifluoromethyl)-5,6-dihydro-4H-1,3-oxazin-4-yl)-4,5-difluorophenyl)-5-cyano-3-methylpicolinamide] | – | – | – | 568 µM | 0.016 µM | 0.055 µM | – |
| N#Cc1cnc(C(=O)Nc2cc(F)c(F)c([C@]3(CF)C[C@@H](C(F)(F)F)OC(N)=N3)c2)c(F)c1 [Example 234, N-(3-((4S,6S)-2-amino-4-(fluoromethyl)-6-(trifluoromethyl)-5,6-dihydro-4H-1,3-oxazin-4-yl)-4,5-difluorophenyl)-5-cyano-3-fluoropicolinamide] | – | – | – | > 400 µM | 0.038 µM | – | IC50 [4, 10]: 0.057 µM |
| NC1=N[C@](CF)(c2cc(Oc3cc(-c4ccccc4)cc(Cl)n3)ccc2F)C[C@@H](C(F)(F)F)O1 [Example 235, (4S,6S)-4-(5-((6-chloro-4-phenylpyridin-2-yl)oxy)-2-fluorophenyl)-4-(fluoromethyl)-6-(trifluoromethyl)-5,6-dihydro-4H-1,3-oxazin-2-amine] | – | – | – | > 133 µM | > 40 µM | 8.17 µM | – |
| C[C@@]1(c2cc(NC(=O)c3ccc(C#N)cn3)cc(F)c2Cl)C[C@@H](C(F)(F)F)OC(N)=N1 [Example 238, N-(3-((4S,6S)-2-amino-4-methyl-6-(trifluoromethyl)-5,6-dihydro-4H-1,3-oxazin-4-yl)-4-chloro-5-fluorophenyl)-5-cyanopicolinamide] | – | – | – | 131 µM | 0.008 µM | 0.006 µM | – |
| COc1cnc(C(=O)Nc2cc(F)c(F)c([C@]3(C)C[C@@H](C(F)(F)F)OC(N)=N3)c2)c(F)c1 [Example 239, N-(3-((4S,6S)-2-amino-4-methyl-6-(trifluoromethyl)-5,6-dihydro-4H-1,3-oxazin-4-yl)-4,5-difluorophenyl)-3-fluoro-5-methoxypicolinamide] | – | – | – | 1180 µM | 0.033 µM | 0.012 µM | – |
| C[C@@]1(c2cc(NC(=O)c3ncc(Br)cc3Cl)cc(F)c2F)C[C@@H](C(F)(F)F)OC(N)=N1 [Example 240, N-(3-((4S,6S)-2-amino-4-methyl-6-(trifluoromethyl)-5,6-dihydro-4H-1,3-oxazin-4-yl)-4,5-difluorophenyl)-5-bromo-3-chloropicolinamide] | – | – | – | 928 µM | 0.02 µM | – | IC50 [4, 10]: 0.022 µM |
